Reference: US20150148417A1, “SYNTHESIS AND BIOLOGICAL STUDIES OF AN ISOMERIC MIXTURE OF (E/Z) ISOXYLITONES AND ITS ANALOGUES” (priority 2013, published 2015)
“Also recorded” adds a separate entry of the source.

Key:
scPTZ-induced kindling = test: scPTZ-induced chemical kindling model of epileptogenesis; assay type: in vivo, mice; details: PTZ 50 mg/kg on alternate days
Procedure: Once screened in the acute seizure model, we next evaluated the effect of test compound on the development on epilepsy process using chemical kindling model of NMRI mice. […] The kindling was induced according to the modified method of De Sarro [23]. Each treatment group consists of 12 male NMRI mice ranging from 20-25 g. All the groups except normal control were given sub-convulsive dose of PTZ i.e., 50 mg/kg subcutaneously once on alternate day between 9:30-11:00 am. The normal control and drug control groups received daily intraperitoneal dose of saline (0.5 mL of 0.9% NaCl) and diazepam (7.5 mg/kg) respectively. Likewise, the test group was administered with the isoxylitones mixture (30 mg/kg, i.p.) once daily. On the day of PTZ administration, the treatment of saline, diazepam or isoxylitones were given 30-40 minutes before the PTZ. After each PTZ injection, animals were placed in observation chambers for 1 hour, and behavioral seizure activity was rated. Animals were scored according to a pre-validated scoring scale for the severity of the seizure activity they show. Seizure patterns during the gradual development of kindling are classified into five distinct behavioral stages as shown in the Table 1. The cumulative kindling score was then calculated and the experiments were terminated once the PTZ-control group reached the score 5. […]

PTZ-induced seizures = test: Subcutaneous pentylenetetrazole (scPTZ)-induced acute seizure test; assay type: in vivo, mice; details: for mortality: acute scPTZ-induced mortality test
Procedure: Subcutaneous Pentylenetetrazole (scPTZ) Seizure Model (Acute Seizures Model)
Anticonvulsant effects of isoxylitones using scPTZ acute seizure test was evaluated by administering three doses i.e. 15, 20, and 30 mg/kg to groups of six mice, at least 30-40 min before subcutaneous administration of convulsive doses of PTZ (90 mg/kg). After administering PTZ, the mice were isolated and placed separately in a clear plexiglass chamber and closely observed for an hour for the presence or absence of different types of seizure patterns i.e. onset of body twitches, threshold seizures, generalized seizures with loss of righting reflex, loss of righting reflex with tonic forelimb seizures, loss of righting reflex with tonic forelimb and hind limb seizures (Table 1). The protection from PTZ-induced mortality was also monitored within 24 hours. In all experiments, diazepam (7.5 mg/kg i.p.) was used as a drug control.
Subcutaneous Pentylenetetrazole-Induced Seizure Test (scPTZ-Induced Acute Seizures Model): […]

BDNF protein expression = test: BDNF immunohistochemistry in brain samples of chemically kindled mice; assay type: in vivo; details: for BDNF immunoreactivity in hippocampus and cortex: vs PTZ kindled group; for cumulative BDNF immunoreactivity (ImageJ): vs PTZ kindling
Procedure: Brain samples from chemically kindled mice (as described above) were collected immediately after the last treatment of animals with PTZ. Mice were deeply anesthetized and transcardially perfused with ice-cold 50 mL solution containing phosphate buffer saline (PBS) and heparin [1 mL (5000 I.U.) of heparin added for 500 mL of PBS]. Brains were removed from cranial cavity and were gently rinsed in cold PBS. After washing, they were fixed in ice cold 4% paraformaldehyde solution for 24 hr at 4° C. These samples were then placed in a cryoprotectant i.e. 30% sucrose in PBS until they sank to the bottom of the container. The samples were subsequently stored at −80° C. until further processing. Cryostat sagittal sections were prepared using cryostat (Thermo Electron Corporation, UK), frozen brain sections of 30-μm thickness were cut at −20° C. and collected directly on poly-lysine coated slides. At the time of processing, the cryosections were kept overnight in a humid chamber at room temperature containing PBS buffer. […] On the following day, the sections were re-hydrated by rinsing three times (5 min/rinse) with PBS buffer, followed by incubation in blocking solution (pre-filtered with syringe filter of […] size, consisting of 2% bovine serum albumin (BSA), 2% normal goat serum and 0.1% Tween-20) for 30 min at 37° C. For BDNF IHC, the sections were incubated overnight at 4° C. with the BDNF (N-20) primary antibody sc-546 rabbit IgG (Santa Cruz Biotechnology Inc., USA). Following overnight incubation in the primary antibody, sections were washed three times in PBS and then were incubated with secondary antibody, i.e. Alexa Fluor® 546 goat anti-rabbit IgG secondary antibody (1:100 dilution) from Invitrogen (Life Technologies, NY, USA) for 30 min at 37° C. in the dark, followed by a final washing step with PBS. Negative control slides were prepared without primary antibody to rule out the non-specific tissue binding of antibodies. The stained sections were observed under fluorescent microscope (Nikon ECLIPSE TE2000-S).
The schematic diagrams of brain sections adapted from the mouse brain atlas were used as a visual guide for determining the sub-region boundaries. The image processing program ImageJ (National Institutes of Health, MD, USA) was used to analyze the images. This software helps in multiple imaging system data comparisons, taking density (densitometry) in consideration. For each image, background density was determined and subtracted; the remaining particles were considered to represent BDNF expression. Data were obtained from two sections per […] (n=12 animals per group) and presented as means±S.E.M BDNF immunoreactivity in the amygdala, cortex, dorsal hippocampus and thalamus were centered approximately around 3.6 mm posterior to bregma. Within the hippocampus region, measurements were performed over the layer extending from sub-regions CA1-CA3.

[1] = system: c-Fos protein and mRNA expression; test: c-Fos protein and mRNA expression in brain samples of kindled mice; assay type: in vivo; details: 30 mg/kg; compared to PTZ-kindled control animals
Text: Recently we have evaluated the effects of novel anticonvulsant isomeric compounds isoxylitones on the c-Fos protein and mRNA expression in the brain samples of kindled mice and compared it with the normal and untreated kindled groups.

mice [2] = test: Behavioral analysis (Turner scoring); assay type: in vivo; details: 30 mg/kg, 50 mg/kg and 100 mg/kg
Procedure: The behavioral analysis was performed adopting the modified procedure as described by Turner, 1972. The effects were recorded using a scoring system (scores were allocated according to the intensity of the symptoms from 0-4) as described by Turner i.e. for stereotype behavior 0: no effect; 1: intermittent; 2: continues 3: intense; 4: severe and for spontaneous activity 0: reduced activity; and 4: increased activity. Animals were transferred into individual cages to allow them to acclimatize to the new environment prior to the experiment.
Blind-testing was employed i.e., the experimenter conducting this study was blinded to the treatment given to the animals in order to avoid any biased interpretations.

SD rats = test: Repeated daily dosing toxicity study, 15, 30 and 90 days; assay type: in vivo; details: 30 mg/kg daily
Procedure: The effective dose of isoxylitones i.e. 30 mg/kg was used in this study. The test was performed in SD rats. The animals divided into three groups and were daily administered with isoxylitones. The first group was sacrificed at the end of 15 days. The second group was sacrificed after 30 days and third group was sacrificed after 90 days. […] At the end, blood was taken via cardiac puncture for biochemistry. Gross anatomical observations were also made for organs as liver, spleen, kidney, heart, and lung and spleen and to examine the organ abnormalities.
The serum levels total bilirubin, GPT, GOT, alkaline phosphatase, and LDH was estimated.

mice [3] = test: Inverted screen acute neurotoxicity test; assay type: in vivo; details: 15, 20, 30, 50, 100 mg/kg i.p.; 5, 30, 60, 120 minutes
Procedure: The neurotoxic manifestation of isoxylitone was determined by inverted screen acute neurotoxicity test developed by Coughenour et al. in 1977. The apparatus consisted of six 13 cm square platforms of 0.6 cm wire mesh supported by metal bars mounted on a metal rod. The rod was supported at both ends and was inverted through an arc of 180°. Mice were pretested on the apparatus the day preceding the experiment, and those failing the task were not used for the subsequent drug test. Testing was carried out at 5, 30, 60 and 120 minutes following i.p. administration of 15 mg/kg, 20 mg/kg, 30 mg/kg, 50 mg/kg and 100 mg/kg of isoxylitone in groups of 6 mice. Mice unable to climb to an upright position for 1 min duration were rated as failures.

mice [4] = test: Acute toxicity (Lorke's test) with gross behavioral observation; assay type: in vivo
Procedure: The isoxylitone was tested for acute toxicity (LD50) using Lorke's test. This method provides the acute toxicity data with the least consumption of animals i.e. initially only 12 animals are required; on obtaining the dose causing the death in 50% animals further three more animals is used at the same dose to get the data statistically significant. Briefly, animals were given different doses of isoxylitone i.e., 50 mg/kg, 75 mg/kg, 100 mg/kg, 500 mg/kg and 1000 mg/kg. After 24 and 48 hours, the maximum dose that had not induced mortality was considered as the maximum non-fatal dose. LD50 values and the corresponding confidence intervals were determined by the Litchfield and Wilcoxon methods (SPSS, version, USA). Data were expressed as mean values±SEM and tested with ANOVA and Tukey-Kramer tests.
They were observed continuously for 2 hours after administration of the test compounds and then every 30 minutes for next 3 hours and finally after 24 hours. The CNS stimulation was judged by the following signs and symptoms:
Locomotor activity, ataxia, clonic & tonic convulsions, sedation, catalepsy, crouching, lacrimation, salivation or any other signs which deviate from the normal behavior of the animal under observation.

[5] = diazepam 7.5 mg/kg i.p. before PTZ 90 mg/kg s.c.
[6] = isoxylitones 15 mg/kg i.p. before PTZ 90 mg/kg s.c.
[7] = isoxylitones 20 mg/kg i.p. before PTZ 90 mg/kg s.c.
[8] = isoxylitones 30 mg/kg i.p. before PTZ 90 mg/kg s.c.

For CN1C(=O)CN=C(c2ccccc2)c2cc(Cl)ccc21 [Diazepam, diazepam, reference compound], the “development of kindling (seizure pattern)” value (scPTZ-induced kindling; diazepam 7.5 mg/kg daily) was “did not exhibit any seizure pattern till the end of the kindling protocol”, the “Hind Limb Tonic Extension (HLTE)” value (PTZ-induced seizures; [5]) was 0 s and the Mortality protection (PTZ-induced seizures; [5]) was 100%. The Onset of jerks (PTZ-induced seizures; [5]) was 850 ± 20 s, the “Rearing & falling” value (PTZ-induced seizures; [5]) was 0 s and the “BDNF immunoreactivity in hippocampus and cortex” value (BDNF protein expression; diazepam 7.5 mg/kg) was “reduced the levels to controls; also recorded: markedly reduced the immunoreactivity”. The “cumulative BDNF immunoreactivity (ImageJ)” value (BDNF protein expression; diazepam 7.5 mg/kg) was “significantly suppressed”.
For isoxylitones, the “development of kindling (seizure score)” value (scPTZ-induced kindling; isoxylitones 30 mg/kg i.p. once daily, 18 doses, 34 days) was “did not exhibit seizure score until the end of the kindling experiment; also recorded: complete inhibition in the development of kindling”, the “protection from PTZ-induced loss of righting reflex with tonic-forelimb and tonic hind-limb seizures” value (PTZ-induced seizures; 30 mg/kg) was 100% and the “prevention of PTZ-induced myoclonic twitches” value (PTZ-induced seizures; 15 and 20 mg/kg) was “effectively prevent PTZ-induced myoclonic twitches”. The “protection from PTZ-induced seizure threshold” value (PTZ-induced seizures; 15 and 20 mg/kg) was “unable to provide complete protection”, the “anticonvulsant activity in vivo models” value (PTZ-induced seizures; compounds shown in FIG. 1) was “strong anticonvulsant activity” and the Onset of jerks (PTZ-induced seizures; isoxylitones 15 mg/kg i.p. 40-50 min before PTZ 90 mg/kg s.c., mean ± SEM) was 440 ± 55 s. The “Hind Limb Tonic Extension (HLTE)” value (PTZ-induced seizures; [6]) was 1260 ± 20 s, the Mortality protection (PTZ-induced seizures; [6]) was 66.7% and the “Rearing & falling” value (PTZ-induced seizures; [6]) was 990 ± 33 s. For the same compound, the mortality (PTZ-induced seizures; isoxylitones 15 mg/kg) was 33.3%, the “Hind Limb Tonic Extension (HLTE)” value (PTZ-induced seizures; [7]) was 0 s and the Mortality protection (PTZ-induced seizures; [7]) was 100%. For the same compound, the Onset of jerks (PTZ-induced seizures; [7]) was 580 ± 21 s, the “Rearing & falling” value (PTZ-induced seizures; [7]) was 1120 ± 40 s and the mortality (PTZ-induced seizures; isoxylitones 20 mg/kg) was 20.8%. For the same compound, the “Hind Limb Tonic Extension (HLTE)” value (PTZ-induced seizures; [8]) was 0 s, the Mortality protection (PTZ-induced seizures; [8]) was 100% and the Onset of jerks (PTZ-induced seizures; [8]) was 900 ± 150 s. The “Rearing & falling” value (PTZ-induced seizures; [8]) was 0 s, the mortality (PTZ-induced seizures; isoxylitones 30 mg/kg) was 0% and the “protection from different seizure patterns of PTZ-induced seizures (twitches, body jerks, clonus, generalized seizure)” value (PTZ-induced seizures; isoxylitones given prior to PTZ, 15, 20, 30 mg/kg) was “dose-related protection”. For the same compound, the c-Fos expression [1] was “significant reduction of c-Fos expression”, the “spontaneous motor activity and behavioral signs (ataxia, abdominal contractions, emesis, hyper-excitability, hyper-locomotion, twitches)” value (mice [2]) was “no alteration in the spontaneous motor activity” and the mortality or morbidity (SD rats) was “No mortality or morbidity”. For the same compound, the “BDNF immunoreactivity in hippocampus and cortex” value (BDNF protein expression; isoxylitones 30 mg/kg) was “returned the enhanced BDNF immunoreactivity from PTZ kindling to the normal control levels”, the “BDNF immunoreactivity in hippocampus and cortex” value (BDNF protein expression; isoxylitones 30 mg/kg, listed as isoxylitones) was “returned the BDNF levels to normal levels” and the “cumulative BDNF immunoreactivity (ImageJ)” value (BDNF protein expression; isoxylitones 30 mg/kg) was “significantly suppressed”. The “acute neurotoxicity (motor function)” value (mice [3]) was “did not show sign of acute neurotoxicity”, the “signs of toxicity / gross behavioral effects” value (mice [4]; 250 mg/kg, approximately 20 minutes after injection) was “mild cramps and abdominal stretching” and the “signs of toxicity / gross behavioral effects” value (mice [4]; 500 mg/kg) was “signs of discomfort and mild toxicity; also recorded: Ataxia, complete sedation and drowsiness”. The “signs of toxicity / gross behavioral effects” value (mice [4]; 1000 mg/kg) was “complete ataxia and sedation” and the “animals showing signs of toxicity or altered behavior” value (mice [4]; 50 and 100 mg/kg, over 24 hours) was “None of the animals”.
